Measured values reported in US12577217B2, “15-PGDH inhibitor” (KYORIN Pharmaceutical Co., Ltd., priority 2019, dated 2026).

Target: T1, recombinant human 15-PGDH (Homo sapiens, UniProt P15428)
T1 construct: purchased R&D Systems
T1 sequence (P15428 1-266): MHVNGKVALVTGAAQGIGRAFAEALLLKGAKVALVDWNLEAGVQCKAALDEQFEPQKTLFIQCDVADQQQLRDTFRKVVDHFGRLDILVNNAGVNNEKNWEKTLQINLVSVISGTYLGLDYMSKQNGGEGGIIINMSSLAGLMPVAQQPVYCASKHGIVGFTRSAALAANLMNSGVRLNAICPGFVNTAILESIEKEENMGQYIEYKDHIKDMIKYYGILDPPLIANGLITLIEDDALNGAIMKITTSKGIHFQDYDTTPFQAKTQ
Experiment: 15-PGDH enzyme inhibition test
Assay type: biochemical
Settings: 4 nM recombinant human 15-PGDH, 30 μM PGE2, 1 mM NAD+, 60 minutes after starting the reaction; read-out: IC50 Value
Protocol: 15-PGDH Enzyme Inhibition Test
A test compound and 4 nM recombinant human 15-PGDH (R&D Systems) were added, in 50 mM Tris-HCl (pH 8.0) containing 0.01% TWEEN 20 (Sigma) and 0.01% bovine gamma globulin (Sigma), to a 384-well Flat Bottom Black plate (Corning, 3820), and the resultant was allowed to stand still at room temperature for 12 minutes, and 30 μM PGE2 (Cayman Chemical) and 1 mM NAD+ (Sigma) were added thereto to start the reaction. 60 minutes after starting the reaction, measurement was performed using Synergy 2 (BioTeck) at an excitation wavelength of 340 nm and a fluorescence wavelength of 440 nm. Assuming that a fluorescence signal obtained with an assay buffer added instead of the test compound and NAD+ was 100% and that a signal obtained with NAD+ added was 0%, a concentration corresponding to 50% inhibition plotted on a concentration-reaction curve of the test compound was defined as an IC50 value. Incidentally, in the following tables, an IC50 value smaller than 10 nM was shown as +++, an IC50 value equal to or larger than 10 nM and smaller than 100 nM was shown as ++, and an IC50 value equal to or larger than 100 nM was shown as +.

| SMILES | IC50 [nM] |
| --- | --- |
| Cn1nc2cc(N3CC(F)(F)COc4cc(C(=O)N5CCCCC5)cnc43)ccn2c1=O [Example 22-1, 7-(3,3-Difluoro-8-(piperidine-1-carbonyl)-3,4-dihydropyrido[3,2-b][1,4]oxazepin-5(2H)-yl)-2-methyl-[1,2,4]triazolo[4,3-a]pyridin-3 (2H)-one] | 10 to 100 |
| Cn1nc2cc(N3CCOc4cc(C(=O)N5CCCC6(CCC6)C5)cnc43)ccn2c1=O [Example 8-67] | < 10 |
| CCN1Cc2cc(N3CCCc4cc(C(=O)N5CCCC5)cnc43)ccc2C1=O [Example 8-69] | < 10 |
| O=C(O)c1cccc(N2CCCc3cc(C(=O)N4CCCCC4)cnc32)c1 [Example 4-20] | 10 to 100 |
| CCn1nc2cc(N3CCCc4cc(C(=O)N5CCCC[C@@H]5C)cnc43)ccn2c1=O [Example 8-158] | < 10 |
| CNC(=O)C1CCC(N2CCOc3cc(C(=O)N4CCCCC4)ccc32)CC1 (stereo not drawn) [Example 6-16] | 10 to 100 |
| O=C(O)c1ccc(N2CCCc3cc(C(=O)N4CCCCC4)ccc32)cc1 [Example 2-26] | < 10 |
| Cn1nc2cc(N3CCOc4cc([S+]([O-])C5CCCCC5)cnc43)ccn2c1=O (stereo not drawn) [Example 7-5] | < 10 |
| Cn1nc2cc(N3CCOc4cc(C(=O)N5CCC[C@H]5C(=O)O)cnc43)ccn2c1=O [Example 35-1, (4-(2-Methyl-3-oxo-2,3-dihydro-[1,2,4]triazolo[4,3-a]pyridin-7-yl)-3,4-dihydro-2H-pyrido[3,2-b][1,4]oxazine-7-carbonyl)-L-proline] | > 100 |
| CN1Cc2cc(N3CCOc4cc(C(=O)N5CCCC(F)(F)C5)cnc43)ccc2C1=O [Example 8-201] | < 10 |
| CC(=O)N1CCN(c2ccn3c(=O)n(C)nc3c2)c2ncc(C(=O)N3CCCCC3)cc21 [Example 29-3] | < 10 |
| Cn1nc2cc(N3CCOc4cc(C(=O)N5C=CCCC5)cnc43)ccn2c1=O [Example 37-1, 2-Methyl-7-(7-(1,2,3,4-tetrahydropyridine-1-carbonyl)-2,3-dihydro-4H-pyrido[3,2-b][1,4]oxazin-4-yl)-[1,2,4]triazolo[4,3-a]pyridin-3(2H)-one] | < 10 |
| O=C(c1cnc2c(c1)OCCN2c1cccc(Cl)c1)N1CCCCC1 [Example 1-253] | 10 to 100 |
| O=C(c1cnc2c(c1)OCCN2c1ccccc1F)N1CCCCC1 [Example 1-238] | > 100 |
| CCN(C)C(=O)c1cnc2c(c1)OCCN2c1ccn2c(=O)n(C)nc2c1 [Example 8-55] | < 10 |
| CC(C)(O)c1ccc(N2CCOc3cc(C(=O)N4CCCCC4)ccc32)cc1 [Example 10-1, (4-(4-(2-Hydroxypropan-2-yl)phenyl)-3,4-dihydro-2H-benzo[b][1,4]oxazin-7-yl)(piperidin-1-yl)methanone] | < 10 |
| Cn1cnc2cc(N3CCOc4cc(C(=O)N5CCCCC5)cnc43)ncc2c1=O [Example 1-39] | 10 to 100 |
| CC(O)CCNC(=O)c1cnc2c(c1)OCCN2c1ccn2c(=O)n(C)nc2c1 (stereo not drawn) [Example 8-180] | 10 to 100 |
| CC(=O)NC(C)(C)c1ccc(N2CCOc3cc(C(=O)N4CCCCC4)cnc32)cc1 [Example 31-1] | > 100 |
| CCOc1noc2cc(N3CCOc4cc(C(=O)N5CCC(F)(F)CC5)cnc43)ccc12 [Example 8-216] | < 10 |
| O=C(O)c1ccc(N2CCOc3cc(C(=O)N4CCOCC4)cnc32)cc1 [Example 4-10] | 10 to 100 |
| Cn1cnc2cc(N3CCOc4cc(C(=O)N5CCCCC5)cnc43)cnc2c1=O [Example 1-38] | < 10 |
| Cn1nc2cc(N3CCOc4cc(C(=O)N5CCCCC5)cnc43)cc(-n3ccnc3)n2c1=O [Example 11-4] | 10 to 100 |
| O=C(c1cnc2c(c1)OCCN2c1cccc(F)c1)N1CCCCC1 [Example 1-237] | < 10 |
| CCn1oc2cc(N3CCOc4cc(C(=O)N5CCC(F)(F)CC5)cnc43)ccc2c1=O [Example 8-214] | < 10 |
| O=C(c1cnc2c(c1)CCCN2c1ccc2c(c1)CN(CC1COC1)C2=O)N1CCC(F)(F)CC1 [Example 1-177] | < 10 |

| SMILES | IC50 [nM] |
| --- | --- |
| CCN1Cc2cc(N3CCCc4cc(C(=O)N5CCC[C@H](F)C5)cnc43)ccc2C1=O [Example 8-84] | < 10 |
| C[C@@H]1CCCN(C(=O)c2cnc3c(c2)OCCN3c2ccc3c(c2)CN(C)C3=O)C1 [Example 8-197] | < 10 |
| CN1Cc2cc(N3CCOc4cc(C(=O)N5CCCCC5)cnc43)cnc2C1=O [Example 1-101] | < 10 |
| Cn1nc2cc(N3CCCc4cc(C(=O)N5CCCC5)cnc43)ccn2c1=O [Example 8-123] | < 10 |
| CCN1Cc2cc(N3CCCc4cc(C(=O)N5CCC(C)CC5)cnc43)ccc2C1=O [Example 8-80] | < 10 |
| N#Cc1ccc(N2CCOc3cc(C(=O)N4CCCCC4)ccc32)cc1 [Example 1-157] | < 10 |
| C[C@H]1CCN(C(=O)c2cnc3c(c2)OCCN3c2ccn3c(=O)n(C)nc3c2)C1 [Example 8-35] | < 10 |
| CCCCN1Cc2cc(N3CCOc4cc(C(=O)N5CCCCC5)cnc43)ccc2C1=O [Example 1-223] | < 10 |
| CCN1Cc2cc(N3CCCc4cc(C(=O)N5CCC[C@@H](CF)C5)cnc43)ccc2C1=O [Example 8-91] | < 10 |
| NC(=O)c1ccc(N2CCOc3cc(C(=O)N4CCCCC4)cnc32)cc1F [Example 6-4] | < 10 |
| O=C(c1ccc2c(c1)OCCN2c1ccc(-c2nnn[nH]2)cc1)N1CCC(F)(F)CC1 [Example 3-1, (4-(4-(1H-Tetrazol-5-yl)phenyl)-3,4-dihydro-2H-benzo[b][1,4]oxazin-7-yl)(4,4-difluoropiperidin-1-yl)methanone] | < 10 |
| Cn1nc2cc(N3CCCc4cc(C(=O)N5CCC(F)CC5)cnc43)ccn2c1=O [Example 8-140] | < 10 |
| O=C(c1cnc2c(c1)OCCN2c1ccn2c(=O)n(Cc3ccncc3)nc2c1)N1CCCCC1 [Example 1-34] | < 10 |
| O=C(c1cnc2c(c1)OCCN2c1ccn2c(=O)n(C3CC3)nc2c1)N1CCCCC1 [Example 26-2] | < 10 |
| C[C@H]1CCCN1C(=O)c1cnc2c(c1)OCCN2c1ccn2c(=O)n(C)nc2c1 [Example 8-29] | < 10 |
| Cn1nc2cc(N3CCCc4cc(C(=O)N5CCCC(F)(F)C5)cnc43)ccn2c1=O [Example 8-139] | < 10 |
| O=C(O)c1cccc(N2CCOc3cc(C(=O)N4CCCCC4)cnc32)c1 [Example 4-19] | 10 to 100 |
| COCCN1Cc2cc(N3CCCc4cc(C(=O)N5CCC(F)(F)CC5)cnc43)ccc2C1=O [Example 1-82] | < 10 |
| COC(=O)c1cn(C)c2cc(N3CCOc4cc(C(=O)N5CCCCC5)cnc43)ccc12 [Example 1-90] | 10 to 100 |
| CN1Cc2cc(N3CCOc4cc(S(=O)(=O)C5CCCCC5)cnc43)ccc2C1=O [Example 7-10] | 10 to 100 |
| CCN1Cc2cc(N3CCCc4cc(C(=O)N5CCC(F)CC5)cnc43)ccc2C1=O [Example 8-86] | < 10 |
| Cc1c(C(=O)N2CCCCC2)ccc2c1OCCN2c1ccc(C(=O)O)cc1 [Example 4-1, 4-(8-Methyl-7-(piperidine-1-carbonyl)-2,3-dihydro-4H-benzo[b][1,4]oxazin-4-yl)benzoic Acid] | < 10 |
| CN1Cc2cc(N3CCOc4cc(C(=O)N5CCC[C@@H](F)C5)cnc43)ccc2C1=O [Example 8-199] | < 10 |
| Cn1nc2cc(N3CCOc4cc(C(=O)N5CCC[C@H]5C(=O)OC(C)(C)C)cnc43)ccn2c1=O [Example 8-227] | > 100 |
| CCOCn1nc2cc(N3CCCc4cc(C(=O)N5CCCCC5)cnc43)ccn2c1=O [Example 1-57] | < 10 |
